The values below come from patent US9463242B2, “Methods for treating prostate cancer” (UNIVERSITY OF ROCHESTER, priority 2011, dated 2016).

For series [1], the system named is PCa S/P cells (LNCaP CD133+). The series is described as follows: MTT growth assay of prostate cancer S/P cells treated with inhibitors. Type of series: cell-based, human. The note with it: for IC50: Homo sapiens, LNCaP; for inhibitory effect on proliferation of the S/P cells: used individually. On the procedure: For an MTT assay, cells were incubated in 12- or 24-well culture plates (10^5-10^3 cells/well) and cultured. At 2, 4, and 6 days, 3-(4,5-dimethylthiazol-2-yl)-2,5-diphenyltetrazolium bromide (MTT; 0.5 mg/mL; Sigma) was added. After 2 hours of reaction, absorbances at 570 nm were measured. For soft agar colony formation assay, cell suspension (1×10^4 cells/well in 6 well culture plates) of mixture of 1.5% agarose (Cambrex Bio Science Rockland, Ill.) and 2× medium (2 ml) was overlaid onto the solidified mixture of agarose base (final agarose concentration will be 0.75%). Two mL of normal medium containing various concentrations of DHT was added on top of the solidified agarose cell layer. All conditions were performed in triplicate. The plates were incubated at 37° C. in a humidified incubator for 21 days. The colonies developed were visualized by staining with 1% crystal violet. The colonies larger than 1 mm in diameter were counted. For sphere formation assay, a single cell suspension (1×10^3, in 50 μl medium) was mixed with cold Matrigel 50 μl (kept on ice) and the mixture was placed along the rim of the 24 well with minimum triplicate experiments. The culture plates were placed in a 37° C. incubator for 10 min to let the mixture solidify and 500 μl medium was then added into the well. Cells were grown in 5% RPMI (for human PCa S/P cells) and epithelial basal medium (PrEBM) (Lonza) supplemented with growth supplement (Lonza) (for mouse cells) with addition of various concentrations of DHT (1 or 10 nM). Spheres numbers were counted after 7 to 14 days under Olympus light microscope and size differences were also examined.
The effect of combined use of these molecules to block self-renewal/proliferation of the S/P cells was tested. […] The effect of a combinations of two drugs selected among three drugs, LY294002 (inhibitor of Akt pathway), γ-TT, and 5-AZA was tested. […] The test results of the combination therapies using soft agar (FIG. 19C) and sphere formation assays (FIG. 19D) confirmed the MTT results. One method of two drug combination therapy was selected based on these three growth assays. This combination is the use of γ-TT and 5-AZA. From all the in vitro tests including an LD test, a minimum dose of these drugs that kills S/P cells was determined. This strategy was used for an in vivo study. When tumors developed the mice were castrated and ASC-J9 was injected, Two or three combinations of the drugs that target S/P population cells were administered. A tumor development curve indicated the recurrence of castration resistant tumors.
(Formazan colour is commonly taken as a measure of viable cells.)

Series [2] deals with AR expression in LNCaP CD133+ cells. As to the kind of experiment: Induction of AR expression in LNCaP CD133+ cells. It counts as cell-based, human.
For series [3] the following is noted: stated as known; cited from earlier work.
Series [4] concerns the target T1, AR (Homo sapiens, UniProt P10275).
T1 sequence (P10275 1-920): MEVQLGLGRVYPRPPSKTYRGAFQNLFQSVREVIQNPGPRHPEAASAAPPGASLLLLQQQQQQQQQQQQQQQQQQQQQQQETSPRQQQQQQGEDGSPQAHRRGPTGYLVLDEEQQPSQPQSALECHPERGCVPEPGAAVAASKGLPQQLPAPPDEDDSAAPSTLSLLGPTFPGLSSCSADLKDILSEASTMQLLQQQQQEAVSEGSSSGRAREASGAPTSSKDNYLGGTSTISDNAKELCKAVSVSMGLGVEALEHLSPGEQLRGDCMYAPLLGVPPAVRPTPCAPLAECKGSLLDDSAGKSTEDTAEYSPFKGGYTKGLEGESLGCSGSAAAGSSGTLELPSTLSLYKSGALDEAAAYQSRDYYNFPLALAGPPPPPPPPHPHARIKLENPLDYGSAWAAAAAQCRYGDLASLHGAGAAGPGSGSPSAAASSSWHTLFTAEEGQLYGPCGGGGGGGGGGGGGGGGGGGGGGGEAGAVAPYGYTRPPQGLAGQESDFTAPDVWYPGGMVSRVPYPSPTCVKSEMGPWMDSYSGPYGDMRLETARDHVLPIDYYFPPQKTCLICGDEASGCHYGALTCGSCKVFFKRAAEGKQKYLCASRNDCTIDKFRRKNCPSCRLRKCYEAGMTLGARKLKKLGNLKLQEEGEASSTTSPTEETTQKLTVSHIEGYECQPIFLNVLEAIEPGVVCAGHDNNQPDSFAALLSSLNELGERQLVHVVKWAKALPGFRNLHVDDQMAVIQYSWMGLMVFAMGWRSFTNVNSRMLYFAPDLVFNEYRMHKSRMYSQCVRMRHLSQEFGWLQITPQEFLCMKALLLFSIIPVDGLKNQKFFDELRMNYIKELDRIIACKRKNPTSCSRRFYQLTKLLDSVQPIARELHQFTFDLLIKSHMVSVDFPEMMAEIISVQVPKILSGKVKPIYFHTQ
The note with it: stated as known; cited from earlier work.

Series [5] concerns LNCaP cells. The series is described as follows: CD133+ population after continuous Casodex treatment, LNCaP. The note with it: Casodex for 5 wks continuously. It counts as cell-based, human. On the procedure: (§1) In order to investigate whether S/P cell numbers increase after ADT/castration, LNCaP cells were treated with anti-androgen, Casodex, to mimic castration conditions in vitro. […] Similar experiments were performed with C4-2 and LAPC-4 cell lines.

Series [6] relates to C4-2 cells. As to the kind of experiment: CD133+ population after Casodex treatment, C4-2. Type of series: cell-based, human. The note with it: C4-2, Casodex treatment. On the procedure:
as §1

Series [7] concerns primary cultured human stromal cells (ps-1). As to the kind of experiment: TGF-β1 treatment of primary cultured human prostate stromal cells, α-SMA and calponin staining. Type of series: cell-based. The note with it: different concentrations of TGF-β1 for 1 to 5 days. On the procedure:
(§2) In FIG. 5a, the expression of TGF-β1 was investigated by IHC staining. The decreased expression of TGF-β1 was found in pes-ARKO epithelium. […] In FIG. 5c, to evaluate the TGF-β1 effect on the differentiation of smooth muscle cells, the primary cultured human prostate stromal cells were treated with different doses of TGF-β1. The expression of smooth muscle α-actin, as shown in FIG. 5c and FIG. 5d, and calponin, as shown in FIG. 5e and FIG. 5f, were detected following treatment for 1 to 5 days.
(§3) The expression of TGF-β1 (FIG. 5a) and TGF-β1 downstream signals was detected by immunohistochemistry (IHC) staining in 24 week old wild type and pes-ARKO prostate epithelium. The TGF-β1 expression and its downstream signals were lower in the epithelium of pes-ARKO mice than those from wild type mice. […] MyoD and Myogenin expression, which are deeply involved in the stromal smooth muscle maturation and differentiation, was also modulated by TGF-β1 stimulation (FIG. 5g).

For series [8], the system named is MyoD and Myogenin expression in primary cultured human prostate stromal cells. The series is described as follows: Expression of smooth muscle maturation genes after TGF-β1 treatment. It counts as cell-based. Particulars: 10 ng/ml TGF-β1 treatment. On the procedure:
as §2, §3

Entries after “also recorded” stand apart in the source; their conditions may differ. Where two headings read alike, the source gives them in different places.

One may read the IC50 as the midpoint of a concentration-inhibition curve. On to `Nc1ncn([C@H]2C[C@H](O)[C@@H](CO)O2)c(=O)n1` [5-AZA, 5-aza-2′-deoxycytidine], for which the IC50 in series [1] (read-out: IC50 of the individual compound) fell in the range of 2500 to 5000 nM. The “inhibitory effect on proliferation of the S/P cells” value in series [1] is reported as “inhibits proliferation”. Besides, the AR expression result in series [2] was “Induction of AR expression”.

On to `COc1ccc(/C=C/C(=O)/C=C(O)/C=C/c2ccc(OC)c(OC)c2)cc1OC` [ASC-J9], for which the toxicity result in series [3] is “without toxicity”. Further, the AR degrading activity entry in series [4] is listed as “AR degrading activity”.

For `CC(O)(CS(=O)(=O)c1ccc(F)cc1)C(=O)Nc1ccc(C#N)c(C(F)(F)F)c1` (stereo not drawn) [Casodex], the “CD133+ population cells” value in series [5] is listed as “significantly increased; also recorded: increase”; in series [6] it was “not as significant as in LNCaP cells”.

As for `O=c1cc(N2CCOCC2)oc2c(-c3ccccc3)cccc12` [LY294002], the IC50 was less than 1000 nM in series [1] (LY294002 + γ-TT + 5-AZA together, S/P cells, MTT, read-out: IC50 of the individual compound when three compounds were used together) and 2500 to 5000 nM in series [1] (compound used alone, S/P cells, MTT, read-out: IC50 of the individual compound).

For `CC(C)=CCC/C(C)=C/CC/C(C)=C/CC[C@]1(C)CCc2cc(O)c(C)c(C)c2O1` [γ-TT, γ-tocotrienol], the “inhibitory effect on proliferation of the S/P cells” value in series [1] is listed as “inhibitory effect”.

For “TGF-β1: TGF-β1 protein used to treat primary cultured human prostate stromal cells”, in series [7], the “number of mature stromal smooth muscle cells (α-SMA and calponin staining)” value was “significantly dependent on the higher concentration and longer duration”. The “MyoD and Myogenin expression” value in series [8] is on record as “modulated”.
